# Source: patent publication US20240238314A1, “TREATMENT OF ESSENTIAL TREMOR” (Sage Therapeutics, Inc., priority 2021, published 2024)
# Assays:
# [1] = test system: individuals with essential tremor; assay: Phase 2 study, Compound 1 60 mg once daily for 28 days: TETRAS performance subscale total score; type: in vivo, human; details: Full Analysis Set
# Experimental: As used herein, “The Essential Tremor Rating Assessment Scale (TETRAS) performance subscale total score” refers to an assessment scale for essential tremor developed by The Tremor Research Group (Elble, R. J., J. Neurol. Neuromedicine 1(4):34-38 (2016); Elble, R. J. et. al., Mov. Disord. 27(12); 1567-1569 (2012)). The TETRAS […] performance subscale includes 9 metrics or characteristics, wherein each metric or characteristic is scored 0 to 4. Some metrics or characteristics are performed on both right and left limbs and/or include multiple subitems. Scores for each of the 9 characteristics are then added to give a total score of no greater than 64. The 9 metrics or characteristics include:
# Participants were 18 to 80 years of age, inclusive, diagnosed of ET of at least 3 years duration with scores of at least 1.5 for each of the six items that comprised the combined total upper limb TETRAS (total performance subscale part 4) with the total score for the dominant upper limb (the sum of the 3 items for either the right or left upper limb, whichever is dominant) being at least 5.5, at both Screening and predose on Day 1.
# Participants were randomized to receive Compound 1 60 mg or placebo once daily in the morning on a 1:1 basis. If participants reported a TEAE considered by investigator to be related to Compound 1 and not tolerable, investigator might reduce the dose of Compound 1 from 60 mg in 15 mg decrements (i.e., 60 mg, to 45 mg, to 30 mg), as medically appropriate. If intolerable TEAEs persist at the 30 mg dose, Compound 1 was permanently stopped.
# This study included a Screening Period of up to 28 days, a 29-day treatment period consisting of 28 days of dosing with the end of treatment visit intended to be on Day 29 at trough, and a 14-day follow-up period relative to final dose. Study patients were not taking other medications for essential tremor during the 28-day treatment period.
# [2] = test system: individuals with essential tremor; assay: Phase 2 study, Compound 1 60 mg once daily for 28 days: TETRAS ADL total score; type: in vivo, human
smiles,measurement,setting,value
COC[C@@]1(O)CC[C@H]2[C@@H](CC[C@@H]3[C@@H]2CC[C@]2(C)[C@@H](C(=O)Cn4nnc(C)n4)CC[C@@H]32)C1 [Compound 1],LSMean difference vs placebo in change from baseline in TETRAS performance subscale total score,[1]; Day 8,−1.26
same,Model-based LSMean (SE) change from baseline in TETRAS performance subscale total score,[1]; Day 8,−3.55 (0.780)
same,LSMean difference vs placebo in change from baseline in TETRAS performance subscale total score,"[1]; Day 15, 5 hr postdose",−1.52
same,Model-based LSMean (SE) change from baseline in TETRAS performance subscale total score,"[1]; Day 15, 5 hr postdose",−5.90 (1.015)
same,LSMean difference vs placebo in change from baseline in TETRAS performance subscale total score,"[1]; Day 15, 8 hr postdose",0.01
same,Model-based LSMean (SE) change from baseline in TETRAS performance subscale total score,"[1]; Day 15, 8 hr postdose",−4.61 (0.954)
same,LSMean difference vs placebo in change from baseline in TETRAS performance subscale total score,"[1]; Day 15, predose",−0.91
same,Model-based LSMean (SE) change from baseline in TETRAS performance subscale total score,"[1]; Day 15, predose",−3.46 (0.878)
same,LSMean difference vs placebo in change from baseline in TETRAS performance subscale total score,[1]; Day 22,−0.24
same,Model-based LSMean (SE) change from baseline in TETRAS performance subscale total score,[1]; Day 22,−3.16 (0.914)
same,LSMean difference vs placebo in change from baseline in TETRAS performance subscale total score,[1]; Day 29,"−0.32 (−2.78, 2.14)"
same,Model-based LSMean (SE) change from baseline in TETRAS performance subscale total score,[1]; Day 29,−3.22 (0.922)
same,LSMean difference vs placebo in change from baseline in TETRAS performance subscale total score,"[1]; Day 29, listed as Cmpd 1",−0.32
same,LSMean difference vs placebo in change from baseline in TETRAS performance subscale total score,[1]; Day 42,2.28
same,Model-based LSMean (SE) change from baseline in TETRAS performance subscale total score,[1]; Day 42,−1.59 (0.820)
same,LSMean Difference (CI) vs placebo in CFB in TETRAS ADL total score,"[2]; Baseline TETRAS ADL ≥ 28, Day 29",−1.47
same,LSMean difference vs placebo in change from baseline in TETRAS ADL total score,"[2]; Full Analysis Set, Day 8",−2.80
same,"Change from baseline in TETRAS ADL subscale total score compared with placebo, in words","[2]; Full Analysis Set, Day 29",numerically superior to placebo but failed to reach statistical significance
same,LSMean difference vs placebo in change from baseline in TETRAS ADL total score,"[2]; Full Analysis Set, Day 29","−1.37 (−3.81, 1.08)"
